Measurements published in patent US10556936B2, “Immunogenic proteins and fragments thereof from allergenic mites” (ALK-ABELLÓ A/S, priority 2016, dated 2020).

System: HDM-specific T cells expanded from PBMCs of HDM-allergic individuals
Assay: T cell reactivity of peptides: IFN/IL-5 ELISPOT on in vitro expanded HDM-specific T cells
Assay type: cell-based, human
Conditions: for SFC/donor: individual peptides 10 μg/mL; for % responder: percentage of donors that produced a response against the peptide, 10 μg/mL
Procedure: Each sequence of an “L” cluster was aligned separately using the MEGA software tool with ClustalW. Fifteen-mer peptides overlapping by 10 amino acids were generated and the last 15-mer peptide was added when the sequence length was not divisible by 5, 14,783 unique peptides remained.
HLA class II binding predictions optimized for global coverage were performed for the seven class II alleles (HLA-DRB1*03:01, HLA-DRB1*07:01, HLA-DRB1*15:01, HLA-DRB3*01:01, HLA-DRB3*02:02, HLA-DRB4*01:01 and HLA-DRB5*01:01) using the standalone version of the IEDB class II binding prediction tool. The median consensus percentile rank was estimated from the consensus percentile ranks for the seven alleles. Further, peptides with more than ten overlapping amino acids, which appeared because several occurrences of some sequence regions were repeated multiple times in the same sequence, were eliminated (e.g. “[…]” was repeated seven times in one sequence.) Variant peptides were also removed, retaining the better peptide based on the median consensus percentile rank and conservation among the sequences within its respective cluster. Peptides with median consensus percentile rank ≤10.0 and conserved in ≥35% of sequences in the same cluster were finally selected, also including additional selected peptides chosen to maximize DRB1 allele coverage, for a grand total of 2,589 peptides.
Peptides were purchased from Mimotopes (Clayton, Victoria, Australia) or A and A (San Diego, Calif.) as crude material on a small (1-mg) scale. Individual peptides were resuspended in DMSO at a final concentration of 40 mg/mL. Peptide “megapools” of 30-65 peptides/pool were generated. Following lyophilization, each pool was reconstituted in DMSO so that each peptide was present at a concentration of 4 mg/mL. To facilitate deconvolution of positive megapools, each megapool was further broken down in 2-6 “mesopools” (259 mesopools in total), each containing 8-14 peptides. Each mesopool was then deconvoluted to identify individual positive peptides. To avoid dimerization and polymerization of peptides by intra- and intermolecular disulfide bond formation between cysteine residues, this amino acid were in some instances substituted by a serine residue in the peptides. Such peptides are herein marked with an asterisk (*).
PBMCs from European HDM-allergic individuals were recruited in the Copenhagen region (defined by clinical history of allergy to house dust mite and specific IgE to group 1 and group 2 major allergens from Der p and/or Der f and with measured specific IgE (CAP) >0.7 kU/L towards Der p/f 1 or Der p/f 2. In addition, PBMCs from 10 US HDM-allergic individuals were recruited in San Diego (defined by Der p extract IgE titers greater than 0.35 kUA/L). PBMCs were isolated from whole blood by density gradient centrifugation according to manufacturers' instructions (Ficoll-Hypaque, Amersham Biosciences, Uppsala, Sweden). Der p- and Der f-specific extract IgE titers were determined using the ImmunoCAP system (Thermo Fisher, Uppsala, Sweden). In a separate series of experiments, pooled plasma from 10 European and 10 American HDM atopic individuals from the San Diego region, respectively, was utilized to run 2D immunoblots to elucidate IgE and IgG reactivity towards the proteins, which had at least one peptide with positive T cell response.
HDM-specific T cells were expanded in vitro. Briefly, PBMCs from HDM-allergic individuals were stimulated with HDM extract (5 μg/mL) and expanded over 14-17 days with IL-2 (added every 3 days). Cells were harvested on day 14, restimulated with HDM extract (5 μg/mL), individual peptides (10 μg/mL) or peptide pools (5 μg/mL) and screened for […]/IL-5-production by ELISPOT. Criteria for positivity were 100 or 20 spot forming cells (SFCs) per 10^6 PBMCs for peptide pools or single peptides, respectively, p<0.05, and a stimulation index >2.

Substance	SFC/donor [SFC/donor]	% responder [%]
131 (PRIIRFNYDEQTNIL; Immunogenic fragment) [compound 131]	160	25
66 (IVQEVHQQFDSFVGQ; Immunogenic fragment) [compound 66]	6	5
62 (RHIINESYKKLLPKS; Immunogenic fragment) [compound 62]	4	5
90 (TKLASGVFLFNSNAM; Immunogenic fragment) [compound 90]	11	5
SLRGVTIRNAPFLEE (Immunogenic fragment) [Peptide 178, fragment of A0023 Der f]	42	10
118 (SSLQYRYRFLAHLYT; Immunogenic fragment) [compound 118]	37	20
72 (KRYLLRLEHFYQSNE; Immunogenic fragment) [compound 72]	4	5
70 (HSKRYLLRLEHFYQR; Immunogenic fragment) [compound 70]	5	5
61 (AMLQCRHVISESYRK; Immunogenic fragment) [compound 61]	5	5
83 (DLSMTKLKRVRPSGF; Immunogenic fragment) [compound 83]	4	5
89 (RAPFRKNTNWKRYTQ; Immunogenic fragment) [compound 89]	9	5
56 (LKKHYADLAARPFFP; Immunogenic fragment) [compound 56]	8	5
135 (IIQTKLSIFNDNDKS; Immunogenic fragment) [compound 135]	3	5
85 (DQVLRLKFIDANQKR; Immunogenic fragment) [compound 85]	222	20
74 (TVSLRHLFQSFEITA; Immunogenic fragment) [compound 74]	25	5
130 (SIIFDGKPYYQFIYT; Immunogenic fragment) [compound 130]	55	5
151 (FVYAKLRGAFSESTA; Immunogenic fragment) [compound 151]	9	5
147 (LGMQICFDMIFKTPG; Immunogenic fragment) [compound 147]	28	20
55 (KFMMASEDLLKKHYA; Immunogenic fragment) [compound 55]	5	5
80 (NLSSKVLPNLNVPYC; Immunogenic fragment) [compound 80]	4	5
119 (RYRFLAHLYTLFYHV; Immunogenic fragment) [compound 119]	158	10
102 (QLHYNLHNLYGFQEA; Immunogenic fragment) [compound 102]	14	10
128 (YQTNQSIIILEILGI; Immunogenic fragment) [compound 128]	10	10
53 (FEAKGFKLVAMKFMM; Immunogenic fragment) [compound 53]	7	5
50 (FIMLKPDAVQRGIVG; Immunogenic fragment) [compound 50]	7	5

Substance	SFC/donor [SFC/donor]	% responder [%]
112 (PSILNFNLFGVPMIG; Immunogenic fragment) [compound 112]	4	5
129 (INILGVPKLPTSFKL; Immunogenic fragment) [compound 129]	24	20
132 (GKPYYQFIYTTNNML; Immunogenic fragment) [compound 132]	44	15
116 (LGESVIRAARSSLQY; Immunogenic fragment) [compound 116]	30	15
75 (SLRHLFKSFEIIAVE; Immunogenic fragment) [compound 75]	6	5
108 (NKRPFIISRATAPGH; Immunogenic fragment) [compound 108]	146	5
64 (LYNPLGHRLINHTVR; Immunogenic fragment) [compound 64]	6	5
78 (ELTLGANQPISSLKN; Immunogenic fragment) [compound 78]	6	5
EPFMINQLAALIRRE (Immunogenic fragment) [Peptide 181, fragment of A0023 Der f/p]	40	10
73 (TLEQWHSKRYLLRLE; Immunogenic fragment) [compound 73]	4	5
YPRKYAFALPKDSQY (Immunogenic fragment) [Peptide 187, fragment of A0023 Der f]	25	10
LGTLRNGATNHFLSK (Immunogenic fragment) [Peptide 183, fragment of A0023 Der f]	163	20
138 (YHNLIGLPAMPPFWS; Immunogenic fragment) [compound 138]	3	5
92 (GPKPEQVVQQYHNLI; Immunogenic fragment) [compound 92]	1	5
76 (FKSFEIIAVEELTLG; Immunogenic fragment) [compound 76]	8	5
46 (FNYLPVDVQEELRNT; Immunogenic fragment) [compound 46]	7	5
EARENYITFTEPFMI (Immunogenic fragment) [Peptide 179, fragment of A0023 Der f/p]	5	5
59 (GTEKQHVAFNYAKML; Immunogenic fragment) [compound 59]	80	5
114 (YQLGAFYSFARNHND; Immunogenic fragment) [compound 114]	35	15
126 (TQNINFINILGVPKL; Immunogenic fragment) [compound 126]	72	15
67 (LMVHRRLLHDDYFGV; Immunogenic fragment) [compound 67]	2	5
95 (TTYTRNRAVGIPMDV; Immunogenic fragment) [compound 95]	77	15
109 (HWNGDILSDWSSMRW; Immunogenic fragment) [compound 109]	88	25
63 (EFCPYLNISSCPSTE; Immunogenic fragment) [compound 63]	7	10
49 (KGIIPGIKVDTGVVT; Immunogenic fragment) [compound 49]	83	10
